Each structure is given as a SMILES string. Where only a bound is given, the exact number is not on record here.

For assay [1], the system named is E. coli ATCC 25922 (SEN) and E. coli NCTC13846 (MDR). Briefly: microbe, parasite or virus in culture. In kind it is cell-based, Escherichia coli. The following applies: for MIC: Escherichia coli, across three biological replicates. On the procedure:
(§1) This study focused on multiple bacterial strains, as follows. For the FoR and ALE experiments, 2 strains per species were chosen: E. coli ATCC 25922, K. pneumoniae ATCC 10031, A. baumannii ATCC 17978, and P. aeruginosa ATCC BAA-3107 as sensitive (SEN) strains, and E. coli NCTC13846, K. pneumoniae ATCC 700603, A. baumannii ATCC BAA-1605 and P. aeruginosa LESB58 as multi-drug resistant (MDR) strains. Functional metagenomic screens were performed with E. coli ATCC 25922 and K. pneumoniae ATCC 10031 strains. To determine the dose-kill properties of the different antibiotics, an E. coli strain (ATCC 25922) expressing a yellow fluorescent protein (pZS2R, YFP, CHL^R) and a red fluorescent protein (pZS2R, mCherry, CHL^R) was used.
(§2) Unless otherwise indicated, cation-adjusted Mueller-Hinton Broth 2 (MHB, Millipore) medium was used throughout the study, except for SCH79797 (SCH).
(§3) A robotic liquid handling system was used to automatically prepare a 11 to 16-step serial dilution in 384-well microtiter plates (Greiner). A final concentration of 5 × 10^5 bacterial cells per mL were inoculated into each well containing 60 µL MHB medium. Bacterial cultures were incubated at 37 °C with continuous shaking (Infors shaker, 900 rpm with 3 mm throw) for 18 hours (2 replicates from each). Cell growth was monitored by measuring the optical density (OD600 values, using Biotek Synergy microplate reader). MIC was defined as the antibiotic concentration of complete growth inhibition (i.e., OD600 < 0.05). Relative MIC was calculated as follows:1 relativeMIC=MICevolved/MICancestor

Assay [2] deals with P. aeruginosa ATCC BAA-3107 (SEN) and P. aeruginosa LESB58 (MDR). Briefly: microbe, parasite or virus in culture. The note with it: for MIC: Pseudomonas aeruginosa, across three biological replicates. In kind it is cell-based, Pseudomonas aeruginosa. On the procedure: as §1, §2, §3
Assay [3] concerns K. pneumoniae ATCC 10031 (SEN) and K. pneumoniae ATCC 700603 (MDR). Briefly: Frequency-of-resistance (FoR) assay, relative MIC of mutants. In kind it is cell-based, Klebsiella pneumoniae. The note with it: for Relative MIC: Klebsiella pneumoniae ATCC 10031 (KP-SEN); for MIC: Klebsiella pneumoniae. As for the experimental part:
The susceptibility of antibiotics to resistance development was evaluated in two strains of each bacterial species: a multidrug-resistant strain and an antibiotic-sensitive strain of Escherichia coli, Klebsiella pneumoniae, Acinetobacter baumannii, and Pseudomonas aeruginosa. To explore first-step resistance, we previously used a standard protocol for spontaneous frequency-of-resistance analysis (FoR assay) at multiple concentrations of each antibiotic[10],[28],[31]–[33]. […] For all other combinations, approximately 10^10 bacterial cells were exposed to one of each antibiotic on agar plates for two days at concentrations where the given strain is susceptible. We examined resistance levels by contrasting the minimum inhibitory concentration (MICs) of the mutated strains to the original wild-type bacterial strain (i.e., relative MIC).
To estimate the frequency of spontaneous mutations that confer resistance in a microbial population, we conducted a frequency of resistance (FoR) assay following established protocols[10],[31]–[33]. […] Prior to plating, bacteria were grown overnight in MHB medium at 37 °C and 250 RPM, then centrifuged and washed in MHB. All experiments were performed in triplicate, and plates were incubated at 37 °C for 48 hours. Total colony-forming units (CFUs) were determined by plating appropriate dilutions onto antibiotic-free MHB agar. Resistance frequencies were calculated by dividing the number of resistant colonies by the initial viable cell count. From the plates with the highest antibiotic concentration, ten colonies were selected for MIC determination and whole-genome sequencing.
as §3, with “relativeMIC=MICevolved/MICancestor […]” for “relativeMIC=MICevolved/MICancestor”
Supplementary Figure 3. Resistance levels following the frequency of resistance assay across bacterial strains. The level of resistance was measured as the fold change in relative MIC between evolved and ancestral strains. Data are grouped by bacterial strain (A. baumannii (AB), E. coli (EC), K. pneumoniae (KP), and P. aeruginosa (PA)) and categorized as either multidrug-resistant (MDR) or sensitive (SEN). Each data point represents a laboratory evolved line, and boxplots show the median, first and third quartiles, with whiskers indicating the 5th and 95th percentiles. […]
analysis was performed using two-sided Dunn’s post-hoc test with Benjamini-Hochberg correction for multiple comparisons (**/ * indicates p < 0.01/ 0.05). For detailed information on antibiotic and bacterial species, see Supplementary Table 1. For mode of action groups, refer to Table 1. Source data are provided as a Source Data file.

Assay [4] shares this test system. Briefly: microbe, parasite or virus in culture. In kind it is cell-based, Klebsiella pneumoniae. The note with it: for MIC: Klebsiella pneumoniae, across three biological replicates. On the procedure: as §1, §2, §3
Assay [5] relates to A. baumannii ATCC 17978 (SEN) and A. baumannii ATCC BAA-1605 (MDR). In words: microbe, parasite or virus in culture. The following applies: for MIC: Acinetobacter baumannii, across three biological replicates. In kind it is cell-based, Acinetobacter baumannii. On the procedure: as §1, §2, §3
[6] abbreviates: E. coli NCTC 13846 (EC-MDR), ancestor strain, sheet fig 2a.
The mark [7] stands for this setting: EC-MDR, Escherichia coli NCTC 13846, ancestor strain.
Where [8] appears, read: EC-SEN, Escherichia coli ATCC 25922, ancestor strain.
[9] abbreviates: Escherichia coli ATCC 25922 (EC-SEN), ancestor strain, sheet fig 2a.
[10] abbreviates: Escherichia coli ATCC 25922 (EC-SEN).
Setting [11] is: Escherichia coli NCTC 13846 (EC-MDR).
[12] abbreviates: P. aeruginosa ATCC BAA 3107 (PA-SEN), ancestor strain, sheet fig 2a.
[13] abbreviates: P. aeruginosa LESB 58 (PA-MDR), ancestor strain, sheet fig 2a.
Setting [14] is: PA-MDR, Pseudomonas aeruginosa LESB 58, ancestor strain.
The mark [15] stands for this setting: PA-SEN, Pseudomonas aeruginosa ATCC BAA 3107, ancestor strain.
Setting [16] is: ATCCBAA3107, Pseudomonas aeruginosa ATCC BAA-3107 (PA-SEN).
Setting [17] is: ATCCBAA3107, Pseudomonas aeruginosa LESB 58 (PA-MDR).
[18] abbreviates: read-out: MIC of evolved line, Klebsiella pneumoniae ATCC 10031 (KP-SEN), evolved line 1.
Where [19] appears, read: read-out: MIC of evolved line, Klebsiella pneumoniae ATCC 10031 (KP-SEN), evolved line 2.
[20] abbreviates: read-out: MIC of evolved line, Klebsiella pneumoniae ATCC 10031 (KP-SEN), evolved line 3.
The mark [21] stands for this setting: Klebsiella pneumoniae ATCC 10031 (KP-SEN), ancestor strain, sheet fig 2a.
Where [22] appears, read: Klebsiella pneumoniae ATCC 10031 (KP-SEN).
[23] abbreviates: Klebsiella pneumoniae ATCC 700603 (KP-MDR).
Setting [24] is: AB-SEN, Acinetobacter baumannii ATCC 17978, ancestor strain.
Where [25] appears, read: Acinetobacter baumannii ATCC 17978 (AB-SEN), ancestor strain, sheet fig 2a.
Where [26] appears, read: Acinetobacter baumannii ATCC 17978 (AB-SEN).
Setting [27] is: Acinetobacter baumannii ATCC BAA-1605 (AB-MDR).
Where [28] appears, read: read-out: MIC of evolved line, Klebsiella pneumoniae ATCC 700603 (KP-MDR), evolved line 1.
The mark [29] stands for this setting: read-out: MIC of evolved line, Klebsiella pneumoniae ATCC 700603 (KP-MDR), evolved line 2.
[30] abbreviates: read-out: MIC of evolved line, Klebsiella pneumoniae ATCC 700603 (KP-MDR), evolved line 3.
The mark [31] stands for this setting: Klebsiella pneumoniae ATCC 700603 (KP-MDR), ancestor strain, sheet fig 2a.
The mark [32] stands for this setting: Escherichia coli ATCC 25922 (EC-SEN), ancestor.
Setting [33] is: Klebsiella pneumoniae ATCC 10031 (KP-SEN), ancestor.

With `O=c1ccc2ncc(=O)n3c2n1C[C@H]3CN1CCC(NCc2cc3c(cn2)OCCC3)CC1` [Gepotidacin], the MIC of ancestor turned out to be 2 µg/mL in assay [1] (setting [6]); 2 µg/mL in assay [1] (setting [7]); 1 µg/mL in assay [1] (setting [8]); 1 µg/mL in assay [1] (setting [9]); 4 µg/mL in assay [2] (setting [12]); 4 µg/mL in assay [2] (setting [13]). In addition, the MIC of ancestor is 4 µg/mL in assay [2] (setting [14]); 4 µg/mL in assay [2] (setting [15]); 0.125 µg/mL in assay [4] (KP-SEN, Klebsiella pneumoniae ATCC 10031, ancestor strain); 0.125 µg/mL in assay [4] (setting [21]); 2 µg/mL in assay [5] (setting [24]); 2 µg/mL in assay [5] (setting [25]). Moreover, the MIC in assay [1] (setting [10]) came out at 1 µg/mL; in assay [1] (setting [11]) it was 2 µg/mL; in assay [2] (setting [16]), 4 µg/mL; in assay [2] (setting [17]), 4 µg/mL; in assay [3] (setting [18]), 0.0625 µg/mL; in assay [3] (setting [19]), 0.0625 µg/mL. Also, the MIC in assay [3] (setting [20]) was 0.0625 µg/mL; in assay [4] (setting [22]), 0.125 µg/mL; in assay [4] (setting [23]), 16 µg/mL; in assay [5] (setting [26]) it was 2 µg/mL; in assay [5] (setting [27]) it was 32 µg/mL. Besides, the “Relative MIC” value in assay [3] (evolved line 1 versus ancestor), in assay [3] (evolved line 2 versus ancestor) and in assay [3] (evolved line 3 versus ancestor) was 1 each time.

For `C[C@@H](O)[C@H]1C(=O)N2C(C(=O)O)=C(S[C@@H]3CN[C@H](C(=O)N(C)C)C3)[C@H](C)[C@H]12` [Meropenem], the MIC of ancestor was 0.0156 µg/mL in assay [1] (setting [6]); 0.0156 µg/mL in assay [1] (setting [7]); 0.0312 µg/mL in assay [1] (setting [8]); 0.0312 µg/mL in assay [1] (setting [9]); 0.0312 µg/mL in assay [2] (setting [12]); 2 µg/mL in assay [2] (setting [13]). The MIC of ancestor in assay [2] (setting [14]) is 2 µg/mL; in assay [2] (setting [15]), 0.0312 µg/mL; in assay [4] (KP-MDR, Klebsiella pneumoniae ATCC 700603, ancestor strain), 0.0625 µg/mL; in assay [4] (setting [21]), 0.0312 µg/mL; in assay [4] (setting [31]), 0.0625 µg/mL; in assay [5] (setting [24]) it was 1 µg/mL. Also, the MIC of ancestor in assay [5] (setting [25]) stood at 1 µg/mL. Further, the MIC in assay [1] (setting [10]) is 0.0312 µg/mL; in assay [1] (setting [11]), less than 0.0312 µg/mL; in assay [2] (setting [16]), 0.0312 µg/mL; in assay [2] (setting [17]), 2 µg/mL; in assay [3] (setting [18]), 0.0156 µg/mL; in assay [3] (setting [19]) it was 0.0156 µg/mL. The MIC in assay [3] (setting [20]) is 0.0156 µg/mL; in assay [3] (setting [28]), 2 µg/mL; in assay [3] (setting [29]) it was 0.0625 µg/mL; in assay [3] (setting [30]) it was 1 µg/mL; in assay [4] (setting [22]) it was 0.0312 µg/mL; in assay [4] (setting [23]) it was 0.0625 µg/mL. Besides, the MIC in assay [5] (setting [26]) was 1 µg/mL; in assay [5] (setting [27]), greater than 32 µg/mL.

`COc1c(N2C[C@@H]3CCCN[C@@H]3C2)c(F)cc2c(=O)c(C(=O)O)cn(C3CC3)c12` [Moxifloxacin]: the MIC of ancestor in assay [1] (setting [32]) was 0.0312 µg/mL; in assay [1] (setting [9]), 0.0312 µg/mL; in assay [2] (setting [12]), 1 µg/mL; in assay [2] (Pseudomonas aeruginosa ATCC BAA 3107 (PA-SEN), ancestor) it was 1 µg/mL; in assay [4] (setting [33]), 0.00781 µg/mL; in assay [4] (setting [21]), 0.00781 µg/mL. The MIC of ancestor in assay [4] (Klebsiella pneumoniae ATCC 700603 (KP-MDR), ancestor) stood at 1 µg/mL; in assay [4] (setting [31]), 1 µg/mL. The MIC in assay [1] (setting [10]) is 0.0312 µg/mL; in assay [1] (setting [11]) it was greater than 32 µg/mL; in assay [2] (setting [16]) it was 1 µg/mL; in assay [2] (setting [17]), 32 µg/mL; in assay [3] (setting [18]), 0.25 µg/mL; in assay [3] (setting [28]), 4 µg/mL. Further, the MIC was 4 µg/mL in assay [3] (setting [29]); 4 µg/mL in assay [3] (setting [30]); 0.00781 µg/mL in assay [4] (setting [22]); 1 µg/mL in assay [4] (setting [23]); 32 µg/mL in assay [5] (setting [27]).

Take `CN(C)c1cc(CNCC(C)(C)C)c(O)c2c1C[C@H]1C[C@H]3[C@H](N(C)C)C(O)=C(C(N)=O)C(=O)[C@@]3(O)C(O)=C1C2=O` [Omadacycline]: the MIC of ancestor in assay [1] (setting [32]) came to 2 µg/mL; in assay [1] (setting [9]) it was 2 µg/mL; in assay [4] (setting [33]) it was 1 µg/mL; in assay [4] (setting [21]), 1 µg/mL; in assay [5] (Acinetobacter baumannii ATCC 17978 (AB-SEN), ancestor), 0.5 µg/mL; in assay [5] (setting [25]), 0.5 µg/mL. The MIC in assay [1] (setting [10]) was 2 µg/mL; in assay [1] (setting [11]), 16 µg/mL; in assay [2] (setting [16]), greater than 32 µg/mL; in assay [2] (setting [17]), greater than 32 µg/mL; in assay [3] (setting [18]) it was 32 µg/mL; in assay [3] (setting [19]), 16 µg/mL. The MIC is 16 µg/mL in assay [3] (setting [20]); 1 µg/mL in assay [4] (setting [22]); greater than 32 µg/mL in assay [4] (setting [23]); 0.5 µg/mL in assay [5] (setting [26]); 16 µg/mL in assay [5] (setting [27]). For the same compound, the “Relative MIC” value was 32 in assay [3] (evolved line 1 versus ancestor), 16 in assay [3] (evolved line 2 versus ancestor) and 16 in assay [3] (evolved line 3 versus ancestor).

(Values after paper PMC11845477, “Exploring the principles behind antibiotics with limited resistance” (Nature Communications, 2025).)
